Measured values from patent publication US20130005747A1, “METHOD FOR SELECTING A CANCER THERAPY” (Cyclacel Limited, priority 2010, published 2013).
“Also recorded” adds a separate entry of the source.

What was measured:
[1] = tested on: C-10 murine immortalized pulmonary epithelial cells; test: Growth inhibition of immortalized pulmonary epithelial cells (FIG. 6B); assay type: cell-based
[2] = tested on: nasopharyngeal cancer (NPC); test: Clinical study of seliciclib in previously treated advanced solid tumors enriched for NPC; assay type: in vivo, human
Procedure: The incidence of nasopharyngeal cancer (NPC) varies, with higher rates in southern Asia, intermediate rates in Mediterranean basin countries as well as in Greenland and Alaska populations, and low rates in most of the western countries (Chang et al 2006 Cancer Epidemiol. Biomarkers Prev. v15 p 1765). A clinical study of R-roscovitine (seliciclib) in patients with previously treated advanced solid tumors that was heavily enriched for NPC patients was performed. […] Patients were also evaluated for overall survival, response rate, response duration, safety, and tolerability.
A total of 23 patients were enrolled on the study (11 at 400 mg bid and 12 at 800 mg qd.).
This patient was […] and thus not from one of the patient populations where NPC is more prevalent. K-Ras mutations are extremely rare in NPC patients. A biopsy sample from this patient was analysed for K-Ras mutational status. DNA was extracted from a paraffin embedded tumor sample and analysed for a total of 12 different mutations in Gly12 and Gly13 which represent the most common K-Ras activating mutations. Analysis was performed using a standard PCR-RFLP methodology as has been reported previously (Hatzaki et al 2001 Molecular and Cellular Probes; v15, 243) which identified a K-Ras activating mutation at Gly12 in the tumor sample.
This was a longer period of clinical benefit than achieved with four previous therapies.

[3] = tested on: 270 human cancer cell lines; test: Pharmacogenomic analysis of cancer cell lines, summary; assay type: cell-based; settings: over half of investigated lung, pancreatic, head and neck, esophageal, liver, thyroid, ovarian, uterine, and skin cancer cell lines; 72 hours
Text: A total of 270 human cancer cell lines from diverse cancer histopathologic types were investigated.

[4] = tested on: nasopharyngeal cancer (NPC); settings: Phase I, patients with nasopharyngeal cancer; cited from earlier work

## CC[C@H](CO)Nc1nc(NCc2ccccc2)c2ncn(C(C)C)c2n1 [seliciclib, roscovitine]
[1]
  growth inhibition (in words): Dose-dependent growth inhibition
[2]; a number of individuals, 400 mg bid or 800 mg qd
  disease response among the NPC patients: prolonged stable disease
[2]; one NPC patient with K-Ras activating mutation at Gly12, schedule B, 800 mg once per day, four days every week
  duration of stable disease: stable disease for over two years; also recorded: stable disease for greater than two years
[2]; patients, 400 mg bid and 800 mg qd, four consecutive days every week
  tolerability: well tolerated
[3]
  growth inhibition compared with vehicle treated cells: at least 50%
[4]
  copy counts of the EBV virus: concomitant reduction in copy counts of the EBV virus
  tumor response: evidence of tumor shrinkage
